Source: patent US20240400621A1, “PEPTIDES FOR METABOLIC SYNDROME” (ALPARIS, S.A. de C.V., priority 2021, published 2024)
Where two headings read alike, the source gives them in different places. Where no end group is shown, it is not given here.

Tests used:
hTLR2 = target: T1, hTLR2 (Homo sapiens, UniProt O60603); assay: hTLR2 stimulation in HEK-Blue hTLR2 cells (NF-κβ/SEAP reporter, QUANTI-Blue); assay type: cell-based
T1 construct: expressed in transfected cells; host or cells: HEK-Blue hTLR2 cells
Protocol: The analysis of the biological activity of the protein of SEQ ID NO. 1 was performed via an in vitro Toll-like receptors (TLRs) recognition assay. The HEK-Blue hTLR2 cell line expressing the hTLR2 receptor was used, whose stimulation activates the NF-Kβ factor, which in turn induces the production of the reporter protein, secreted embryonic alkaline phosphatase (SEAP). The SEAP levels are quantified by a colorimetric method with the reagent QUANTI-Blue and correspond to hTLR2 stimulation levels. The HEK-Blue hTLR2 cell line was thawed and propagated to make a master cell bank. From this bank, a vial was thawed to check the correct growth of the cell line and the absence of mycoplasma contamination. The cells of the thawed vial were propagated to make a working cell bank and continue the subcultures to mount the activity assay of SEQ ID NO. 1. This consisted of a series of tests in which the cellular response was evaluated with different molecules to determine the most suitable conditions for the assay.
The determined EC50 for SEQ ID NO. 1 was 1147±211 ng/ml (35.1±6.4 nM).
The in vitro biological activity of SEQ ID NO:2, SEQ ID NO:3, SEQ ID NO:4, SEQ ID NO: 8, SEQ ID NO:9, SEQ ID NO: 10, SEQ ID NO:11, SEQ ID NO: 12, SEQ ID NO: 13, SEQ ID NO: 14, SEQ ID NO: 15, and SEQ ID NO:16 was tested via the stimulation of hTLR2 in the cultures of HEK-Blue hTLR2 cells in 96-well plates for 24 h. After collecting the supernatant, the plate was incubated with QUANTI-Blue at 37° C. for 1 h, and absorbance was measured at 620 nm.
To determine the EC50, the absorbance was plotted against the logarithm of protein concentration, and the data was adjusted to a dose-response sigmoidal ligand binding model with 4 parameters. The cell culture medium was used as a negative control, and PAM (synthetic triacylated lipopeptide (Pam3CSK4)) was used as a positive control.

[1] = Body weight of mice on high-fat diet (DAG) with intragastric peptide for 12 weeks; assay type: in vivo, mice (C57BL/6JN)
Protocol: (§1) For all the in vivo testing, male mice of the C57BL/6JN strain between 8 to 10 weeks of age were used, housed in groups of 3 to 5 mice per cage with food and water ad libitum in ventilated racks, and whose microbiota were unified for 4 weeks.
(§2) The mice received either 200 μL of a phosphate buffer solution (PBS) at pH 7.5 (as a vehicle), or 200 μL of the PBS solution, with each of the intragastric treatments daily for 12 weeks. They were fed either a Normal Diet (DN, Harlan, Teklad 2018SX) with 18% of the calories coming from fat, or a High-Fat Diet (DAG, Research Diets, D12491), with 60% of the calories coming from fat.
(§3) All the mice were randomly divided into five experimental groups in order to study the effect of SEQ ID NO: 3 and SEQ ID NO: 2 correctly: • Group 1—Mice with DN that received 200 μl of PBS intragastrically. • Group 2—Mice with DAG that received 200 μl of PBS intragastrically. • Group 3—Mice with DAG that received 200 μl of PBS with SEQ ID NO: 3 intragastrically at a dose of: 2.5 μg/mouse. • Group 4—Mice with DAG that received 200 μl of PBS with SEQ ID NO: 2 intragastrically at a dose of 0.6 μg/mouse (high dose). • Group 5—Mice with DAG that received 200 μl of PBS with SEQ ID NO: 2 intragastrically at a dose of 0.2 μg/mouse (low dose).
The animal weights and feed intakes were recorded weekly.
To determine the metabolic status of the animals before starting the experiment, weight, basal glucose levels, glucose tolerance, and insulin resistance were recorded.

mice fed a high-fat diet [2] = assay: Glucose tolerance test (GTT) in mice fed a high-fat diet; assay type: in vivo, mice (C57BL/6JN); details: 12 weeks; intragastric daily; SEQ ID NO: 3 2.5 μg/mouse, SEQ ID NO: 2 0.6 or 0.2 μg/mouse
Protocol: as §1
as §2, with “fat. […]” for “fat.”
The mice were subjected to fasting for 6 hours, and the baseline glucose values in the blood were determined using glucose test strips and a glucometer (Roche's ACCU-CHECK ACTIVE).
Next, the mice received an intraperitoneal injection of 1.8 mg of glucose per gram of body weight, and the blood glucose values were recorded at 15, 30, 60, and 120 minutes after administration.
FIGS. 19A and 19B show the area under the curve (AUC) of the glucose tolerance test of the mice, measured at week 0 and 12.

mice fed a high-fat diet [3] = assay: Insulin resistance test (PRI) in mice fed a high-fat diet; assay type: in vivo, mice (C57BL/6JN); details: 12 weeks; intragastric daily; SEQ ID NO: 3 2.5 μg/mouse, SEQ ID NO: 2 0.6 or 0.2 μg/mouse
Protocol: as §1
as §2, with “fat. […]” for “fat.”
The mice were subjected to fasting for 6 hours and the baseline glucose values were determined, as described above. Subsequently, the mice received an intraperitoneal injection of 1 mU of insulin per gram of body weight, and blood glucose values were recorded at 15, 30, 60, and 120 minutes after administration. The area under the curve (AUC) of the insulin resistance test was calculated considering the glucose decrease between time T0 and T15 using the absolute glucose values, as shown in FIGS. 20A and 20B.

insulin = assay: Insulin levels (secretion in response to glucose) in mice fed a high-fat diet; assay type: in vivo, mice (C57BL/6JN); details: 12 weeks; versus DAG group
Protocol: as §1, §2, §3
This means that the peptide SEQ ID NO: 3 improves insulin sensitivity, preventing insulin resistance from developing.

adipose tissue = assay: Cellular infiltrate / inflammatory process in adipose tissue of mice fed a high-fat diet; assay type: in vivo, mice (C57BL/6JN)
Protocol: as §1, §2, §3
(§4) To determine the effect of the peptides SEQ ID NO: 2 and SEQ ID NO: 3 in attenuating the inflammatory process in adipose tissue, the cellular infiltrate of the adipose tissue of the mice was quantified after they had been fed DAG.

IL-1B = assay: Circulating IL-1B levels in mice fed a high-fat diet; assay type: in vivo, mice (C57BL/6JN); details: 12 weeks; versus DAG; including SEQ ID NO: 2 at low doses
Protocol: as §1
as §2, with “fat. […]” for “fat.”
as §4

TNFα = assay: Circulating TNFα levels in mice fed a high-fat diet; assay type: in vivo, mice (C57BL/6JN); details: 12 weeks; versus DAG; including SEQ ID NO: 2 at low doses
Protocol: as §1
as §2, with “fat. […]” for “fat.”
as §4

IL-6 = IL-6 levels in mice fed a high-fat diet; assay type: in vivo, mice (C57BL/6JN); details: 12 weeks; animals fed DAG
Protocol: as §1, §2, §3

leptin = assay: Leptin levels in mice fed a high-fat diet; assay type: in vivo, mice (C57BL/6JN); details: 12 weeks; compared to mice fed only DAG
Protocol: as §1, §2
as §3, with “(low dose). […]” for “(low dose).”

adiponectin = assay: Adiponectin levels in mice fed a high-fat diet; assay type: in vivo, mice (C57BL/6JN); details: 12 weeks; fall induced by DAG
Protocol: as §1, §2
as §3, with “(low dose). […]” for “(low dose).”

[4] = target: T2, human Toll-like receptor 2 (hTLR2) on HEK-Blue hTLR2 cells (human (printed as hTLR2), UniProt O60603 21-784); assay: cell-based or functional assay
[5] = target: T2, human Toll-like receptor 2 (hTLR2) on …; assay: cell-based or functional assay; remark: listed apart in the source
[6] = Aggregation during ultrafiltration / buffer change; assay type: physicochemical
Text: The protein of SEQ ID NO. 1, expressed in recombinant form in this invention, contains a tag of six residues of histidine at the carboxyl terminal end, allowing it to be purified by immobilized metal cation affinity chromatography (IMAC). Purification was initially evaluated with the soluble fractions of the two strains that were used for recombinant production, obtained by enzymatic lysis and sonication. The first approach with the Ni-NTA Agarose resin allowed for the recovery of 6% of the SEQ ID NO. 1 with a purity of 50-80%. An FPLC Ákta Prime chromatographic system and an XK16/20 column packed with 13 mL of Chelating Sepharose Fast Flow-Ni^+2 resin were used for purification. A minimum imidazole concentration of 30 mM was defined in both the sample to be injected and the equilibrium buffer. Elution was performed with 500 mM imidazole at 6.5 mL/min, resulting in a minimum recovery of 80% of SEQ ID No. 1 with 82% purity. The ultrafiltration of the tangential flow of SEQ ID NO. 1 during the chromatography stage, in order to concentrate and change the buffer, negatively impacted protein quality. However, the dialysis of EQ ID NO.
However, the aggregation of SEQ ID NO. […] This was corroborated by the SDSPAGE analysis, in which the remaining protein in the soluble fraction presented fragments of lower molecular weight than that of SEQ ID NO. 1, but greater than 25 kDa. On the other hand, the precipitate turned out to be denatured SEQ ID NO. 1, but not degraded.
Finally, SEQ ID NO. 4 and SEQ ID NO.

T2 sequence (O60603 21-784): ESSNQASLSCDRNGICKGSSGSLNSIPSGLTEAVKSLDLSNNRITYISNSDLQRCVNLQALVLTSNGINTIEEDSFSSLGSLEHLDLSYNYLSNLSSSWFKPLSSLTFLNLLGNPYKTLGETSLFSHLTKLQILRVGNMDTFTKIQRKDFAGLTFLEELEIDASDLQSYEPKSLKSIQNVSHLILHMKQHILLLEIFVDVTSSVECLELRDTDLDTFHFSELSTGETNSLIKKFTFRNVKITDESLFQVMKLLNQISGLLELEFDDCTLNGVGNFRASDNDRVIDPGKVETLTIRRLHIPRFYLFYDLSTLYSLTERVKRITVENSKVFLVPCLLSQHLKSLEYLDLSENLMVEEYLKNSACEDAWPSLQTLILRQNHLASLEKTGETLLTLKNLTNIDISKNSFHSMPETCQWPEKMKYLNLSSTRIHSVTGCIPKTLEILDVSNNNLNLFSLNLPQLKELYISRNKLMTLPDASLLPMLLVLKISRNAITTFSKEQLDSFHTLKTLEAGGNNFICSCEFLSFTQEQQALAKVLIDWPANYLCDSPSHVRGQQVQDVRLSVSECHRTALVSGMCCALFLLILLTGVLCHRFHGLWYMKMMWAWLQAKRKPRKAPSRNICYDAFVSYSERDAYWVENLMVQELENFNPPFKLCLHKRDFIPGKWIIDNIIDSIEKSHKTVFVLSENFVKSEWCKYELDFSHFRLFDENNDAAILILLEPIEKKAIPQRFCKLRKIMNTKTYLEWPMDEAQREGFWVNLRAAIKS
T1 sequence (O60603 21-784): as above

AMNAITGMQDYLFTVNSIRIRNERMMPPPIANPAAAK [SEQ ID NO: 2]
concentration from which hTLR2 is (significantly) stimulated (hTLR2; HEK-Blue hTLR2 cells, 24 h): 3.05 nM
concentration giving the best hTLR2 stimulation (hTLR2; HEK-Blue hTLR2 cells, 24 h): 305 nM
Average weight ([1]; 0 weeks (initial state), DAG + SEQ ID NO: 2 High dose group): 23.9 grams
Average weight ([1]; 0 weeks (initial state), DAG + SEQ ID NO: 2 Low dose group): 23.8 grams
Average weight ([1]; 12 weeks, DAG + SEQ ID NO: 2 High dose (0.6 μg/mouse) intragastric daily): 42 grams
Average weight ([1]; 12 weeks, DAG + SEQ ID NO: 2 Low dose (0.2 μg/mouse) intragastric daily): 40.2 grams
glucose tolerance (AUC of GTT) versus DAG group (mice fed a high-fat diet [2]): improved glucose tolerance
insulin sensitivity (AUC of insulin resistance test) versus DAG group (mice fed a high-fat diet [3]): improve insulin sensitivity
insulin secretion in response to glucose administration (insulin): tendency to decrease insulin secretion
cellular infiltrate of adipose tissue (adipose tissue; 12 weeks, versus DAG group): prevented the increase in cellular infiltrate induced by DAG
inflammatory process in adipose tissue (adipose tissue; SEQ ID NO:2 in high or low doses): attenuate the inflammatory process in adipose tissue
circulating levels of IL-1B (IL-1B): prevented the increase in the circulating levels of IL-1B
circulating levels of TNFα (TNFα): prevented the increase in the circulating levels
IL-6 levels (IL-6): dramatic decrease in IL-6 levels
leptin secretion (leptin): decrease in leptin secretion
adiponectin in circulation (adiponectin): tendency to prevent a fall of adiponectin

SEQ ID NO: 12: peptide generated by proteolysis, obtained with both trypsin and Lys-C (MQLPIETPANNPEESDEADQAPWTPMPLEIAFQGDRESVLK)
stimulation of hTLR2 (hTLR2): do not stimulate hTLR2

SEQ ID NO: 14: peptide of the Lys-C proteolysate, passes the 5 kDa ultrafiltration membrane (PYMGK)
stimulation of hTLR2 (hTLR2): do not stimulate hTLR2

SEQ ID NO: 16: peptide of the Lys-C proteolysate, retained at the 10 kDa cutoff (EQVFVQVSLNLVHFNQPK)
stimulation of hTLR2 (hTLR2): do not stimulate hTLR2

B1: protein of SEQ ID NO: 1 (AMUC_1100 of Akkermansia muciniphila without signal peptide, with Xa factor site and histidine tag) (ligand)
chain: MIVNSKRSELDKKISIAAKEIKSANAAEITPSRSSNEELEKELNRYAKAVGSLETAYKPFLASSALVPTTPTAFQNELKTFRDSLISSCKKKNILITDTSSWLGFQVYSTQAPSVQAASTLGFELKAINSLVNKLAECGLSKFIKVYRPQLPIETPANNPEESDEADQAPWTPMPLEIAFQGDRESVLKAMNAITGMQDYLFTVNSIRIRNERMMPPPIANPAAAKPAAAQPATGAASLTPADEAAAPAAPAIQQVIKPYMGKEQVFVQVSLNLVHFNQPKAQEPSEDIEGRHHHHHHDI
EC50 [4]: 1.15 µg/mL
EC50 [5]: 35.1 nM
relative activation of NF-κβ (hTLR2; 10 μg/mL, 24 h stimulation of hTLR2, 60 min QUANTI-Blue, with respect to the culture medium): 16.6%±2.7
aggregation in ultrafiltration operations [6]: aggregation

AMNAITGMQDYLFTVNSIRIRNERMMPPPIANPAAAK [peptide SEQ ID NO: 2]
EC50 [5]: 24.9 nM

B2: peptide SEQ ID NO: 4 (amino terminal domain of SEQ ID NO: 1) (peptide)
chain: IVNSKRSELDKKISIAAKEIKSANAAEITPSRSSNEELEKELNRYAKAVGSLETAYKPFLASSALVPTTPTAFQNELKTFRDSLISSCKKKNILITDTSSWLGFQVYSTQAPSVQAASTLGFELKAINSLVNKLAECGLSKFIKVYRPQ
EC50 [5]: 65.9 nM
concentration from which hTLR2 is (significantly) stimulated (hTLR2; HEK-Blue hTLR2 cells, 24 h): 38 nM
relative response compared to PAM (hTLR2; maximum concentration tested (305 nM)): 101%
aggregation in ultrafiltration operations [6]: no visible aggregation
